Tests used:
Test in all cases: relative viability (nuclei count vs DMSO), 5 days (fraction); higher = more cells survive
IU1-47 + Pemetrexed = compound: CC1=CC(=C(N1C2=CC=C(C=C2)Cl)C)C(=O)CN3CCCCC3 [IU1-47] + Nc1nc2[nH]cc(CCc3ccc(C(=O)N[C@@H](CCC(=O)O)C(=O)O)cc3)c2c(=O)[nH]1 [Pemetrexed] (partner 0.2 µM)
Method in brief: (§1)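 Lung cancer cell lines, seeded in 1536-well plates, were treated the following day by pin tool with a single drug or with five library-drug doses (not always all listed) in √10 steps on top of a fixed anchor-drug dose. Cells were fixed and nuclei stained in one step after 5 days, and nuclei were counted. Relative viability is the nuclei count for treated wells divided by that for vehicle wells, reported as medians of duplicate plates.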

FG-4592 + Trametinib = compound: Cc1nc(C(=O)NCC(=O)O)c(O)c2ccc(Oc3ccccc3)cc12 [FG-4592] + CC(=O)Nc1cccc(-n2c(=O)n(C3CC3)c(=O)c3c(Nc4ccc(I)cc4F)n(C)c(=O)c(C)c32)c1 [Trametinib] (partner 0.02 µM)
Method in brief: as §1

FG-4592 + Foretinib = compound: Cc1nc(C(=O)NCC(=O)O)c(O)c2ccc(Oc3ccccc3)cc12 [FG-4592] + COc1cc2c(Oc3ccc(NC(=O)C4(C(=O)Nc5ccc(F)cc5)CC4)cc3F)ccnc2cc1OCCCN1CCOCC1 [Foretinib] (partner 0.25 µM)
Method in brief: as §1

FG-4592 + Pemetrexed = compound: Cc1nc(C(=O)NCC(=O)O)c(O)c2ccc(Oc3ccccc3)cc12 [FG-4592] + Nc1nc2[nH]cc(CCc3ccc(C(=O)N[C@@H](CCC(=O)O)C(=O)O)cc3)c2c(=O)[nH]1 [Pemetrexed] (partner 0.2 µM)
Method in brief: as §1

Cell Line | relative viability (IU1-47 + Pemetrexed; first compound 0.08 µM) | relative viability (IU1-47 + Pemetrexed; first compound 0.253 µM) | relative viability (IU1-47 + Pemetrexed; first compound 0.8 µM) | relative viability (IU1-47 + Pemetrexed; first compound 2.53 µM) | relative viability (IU1-47 + Pemetrexed; first compound 8 µM) | relative viability (FG-4592 + Trametinib; first compound 0.08 µM) | relative viability (FG-4592 + Trametinib; first compound 0.253 µM) | relative viability (FG-4592 + Trametinib; first compound 0.8 µM) | relative viability (FG-4592 + Trametinib; first compound 2.53 µM) | relative viability (FG-4592 + Trametinib; first compound 8 µM) | relative viability (FG-4592 + Foretinib; first compound 0.08 µM) | relative viability (FG-4592 + Foretinib; first compound 0.253 µM) | relative viability (FG-4592 + Foretinib; first compound 0.8 µM) | relative viability (FG-4592 + Foretinib; first compound 2.53 µM) | relative viability (FG-4592 + Foretinib; first compound 8 µM) | relative viability (FG-4592 + Pemetrexed; first compound 0.08 µM) | relative viability (FG-4592 + Pemetrexed; first compound 0.253 µM) | relative viability (FG-4592 + Pemetrexed; first compound 0.8 µM) | relative viability (FG-4592 + Pemetrexed; first compound 2.53 µM) | relative viability (FG-4592 + Pemetrexed; first compound 8 µM)
NCI-H441 | 0.255 | 0.273 | 0.278 | 0.306 | 0.265 | 0.497 | 0.433 | 0.401 | 0.3 | 0.497 | 0.956 | 0.896 | 0.931 | 0.841 | 1.01 | 0.267 | 0.343 | 0.272 | 0.296 | 0.248
LCLC-103H | 0.474 | 0.464 | 0.469 | 0.449 | 0.519 | 0.713 | 0.582 | 0.684 | 0.684 | 0.69 | 0.716 | 0.671 | 0.632 | 0.799 | 0.769 | 0.435 | 0.456 | 0.51 | 0.478 | 0.457
LCLC-97TM1 | 0.173 | 0.15 | 0.154 | – | 0.172 | 0.211 | 0.241 | – | 0.225 | 0.148 | 0.9 | 0.901 | 0.876 | 0.887 | 0.866 | 0.189 | 0.152 | – | 0.145 | 0.171
NCI-H1355 | 1.06 | 1.08 | 1.12 | – | 1.07 | 0.462 | 0.455 | – | 0.421 | 0.337 | 0.987 | 0.678 | 0.93 | 1.02 | 0.971 | 1.07 | 0.942 | – | 1.03 | 1.05
HOP-62 | 0.398 | 0.454 | 0.373 | 0.223 | 0.365 | 0.399 | 0.354 | 0.353 | 0.392 | 0.334 | 1.13 | 1.03 | 1.12 | 1.05 | 0.986 | 0.287 | 0.317 | 0.35 | 0.304 | 0.324
NCI-H2085 | 0.925 | 0.818 | 0.846 | 0.83 | 0.885 | 0.48 | 0.539 | 0.718 | 0.629 | 0.516 | 0.837 | 0.696 | 0.927 | 0.784 | 0.881 | 0.934 | 0.769 | 0.81 | 0.863 | 1.07

Reference: the supplement of paper PMC10307832
